From patent US8143394B2, “Pyrido(3,2-d)pyrimidines useful for treating viral infections” (Gilead Sciences, Inc., priority 2006, dated 2012)
Read-outs that look alike come from different tables or passages of the source.

What was measured:
HCV replicon = assay: Anti-HCV replicon assay (EC50, luciferase readout); type: cell-based; details: Hepatitis C virus
Description: (§1) The anti-HCV activity of the pyrido[3,2-d]pyrimidine derivatives of this invention was tested in a human hepatoma Huh-7 cell line harbouring a HCV replicon. The assay comprised the following steps:
(§2) Step 1: Compound Preparation and Serial Dilution
(§3) • 1. for water soluble pyrido[3,2-d]pyrimidine derivatives, a volume of 500 μL of solution in cell media (DMEM, 10% FBS, P/S, L-Glutamine) was prepared with a concentration being twice the concentration of the starting final serial dilution concentration. A volume of 150 μL of the solution was added to the pre-specified wells in column 1 of a 96-well cell culture plate (PerkinElmer, white plate, cat. #6005181, for EC50 assay; black plate, cat. #6005182 for CC50 assay). The rest of the plate, columns 2-12, was filled with 100 μL of cell media. The plate was then placed on a Precision 2000 Workstation to start the serial dilution. Compounds were diluted three times each step from column 1 to column 10. Column 11 was used as a blank control (no compound added). • 2. for pyrido[3,2-d]pyrimidine derivatives requiring DMSO to dissolve, serial dilution is performed in 50% DMSO in a 384-well plate. A solution containing a compound at 100-fold concentration of the starting final serial dilution concentration was prepared in 50% DMSO and added to the pre-specified wells in column 1 of a polypropylene 384-well plate. The plate was then placed on a Precision 2000 Workstation to start the serial dilution. After the serial dilution, a volume of 2 μL of the solution was transferred from the 384-well plate to a 96-well cell culture plate containing 100 μL of cell media on a Biomek FX Workstation. The DMSO concentration in the final assay condition was 0.5% after cells are added to the plate and the total volume in each well is brought to 200 μL. Step 2: to each well of the serial dilution plate prepared above, 100 μL of cell media containing 6000 suspended Huh-7 HCV replicon cells was added with a Multidrop workstation. The plates were incubated for 3 days at 37° C. with 5% CO2. Step 3: Detection: • a) for the EC50 assay, the media in a 96-well cell culture plate was aspirated with a Biotek EL405 plate-washer. A volume of 200 μL of a solution containing a 1:1 mixture of cell-lysis buffer (Promega, Luciferase Cell Culture Lysis 5X Reagent, cat. #E1531) and luciferase substrate solution (Promega, Luciferase Assay, cat. # E4550) was added to each well of the plate with Multidrop. The plate was incubated for 30 minutes at room temperature before the luminescence signal was measured with a TopCount plate-reader. • b) for the CC50 assay, a volume of 100 μL of pre-mixed CellTiter-Glo (Promega, cat. # G7572) solution is added directly to the cell culture in each well of the plate and the luminescence signal is measured with a TopCount plate-reader after 10 minutes of incubation at room temperature.
(§4) Results in table 13 are expressed by the following data: • the 50% effective concentration (EC50), i.e. the concentration that protects 50% of the cell monolayer from virus-induced cythopathic effect, and • the 50% cytostatic concentration (CC50), i.e. the concentration that results in 50% inhibition of cell growth.

[1] = CC50 assay (CellTiter-Glo) in Huh-7 HCV replicon cells; type: cell-based, human; details: human, 50% cytostatic concentration
Description: as §1, §2, §3, §4

[2] = 72 h, human hepatoma Huh-7 cell line harbouring a HCV replicon, 3 days, luciferase, read-out: EC50

Row | SMILES | EC50 (HCV replicon; [2]) [nM] | CC50 at 3 days [1] [nM] | EC50 (HCV replicon; Huh-7, 72 h) [nM]
1 | CS(=O)(=O)CCNc1nc(N)nc2ccc(-c3cccc(NS(C)(=O)=O)c3)nc12 [Example 3, N-{3-[2-Amino-4-(2-methanesulfonyl-ethylamino)-pyrido[3,2-d]pyrimidin-6-yl]-phenyl}-methanesulfonamide] | 300 to 1000 | > 20000 | –
2 | CCOc1nc(N)nc2ccc(-c3cccc(NS(=O)(=O)C(C)C)c3)nc12 [Example 52, Propane-2-sulfonic acid[3-(2-amino-4-ethoxy-pyrido[3,2-d]pyrimidin-6-yl)-phenyl]-amide] | < 300 | < 10000 | –
3 | Nc1nc(N2CCOCC2)c2nc(-c3ccc(C(=O)NC4CC4)cc3)ccc2n1 [Example 17, 4-(2-amino-4-morpholin-4-yl-pyrido[3,2-d]pyrimidin-6-yl)-N-cyclopropyl-benzamide] | < 300 | < 10000 | –
4 | CCOc1nc(N)nc2ccc(-c3ccc(NC(=O)C4(N)CC4)cc3)nc12 [Example 36, 1-Amino-cyclopropanecarboxylic acid [4-(2-amino-4-ethoxy-pyrido[3,2-d]pyrimidin-6-yl)-phenyl]-amide] | < 300 | > 20000 | –
5 | Nc1nc(O[C@@H]2CCOC2)c2nc(-c3ccc(N4CCCC4=O)cc3)ccc2n1 [Example 28, 1-{4-[2-Amino-4-(tetrahydro-furan-3-yloxy)-pyrido[3,2-d]pyrimidin-6-yl]-phenyl}-pyrrolidin-2-one] | < 300 | > 20000 | –
6 | CCOc1nc(N)nc2ccc(-c3ccc(NC(=O)[C@@H](N)CO)cc3)nc12 [Example 41, 2-Amino-N-[4-(2-amino-4-ethoxy-pyrido[3,2-d]pyrimidin-6-yl)-phenyl]-3-hydroxy-propionamide] | < 300 | > 20000 | –
7 | Nc1nc(O[C@H]2CCOC2)c2nc(-c3ccc(C(=O)NCC(F)(F)F)cc3)ccc2n1 [Example 82, 4-[2-Amino-4-(tetrahydro-furan-3-yloxy)-pyrido[3,2-d]pyrimidin-6-yl]-N-(2,2,2-trifluoro-ethyl)-benzamide] | < 300 | 10000 to 20000 | –
8 | CS(=O)(=O)CCNc1nc(N)nc2ccc(-c3ccc(C(=O)NC4CC4)cc3)nc12 [Example 7, 4-[2-Amino-4-(2-methanesulfonyl-ethylamino)-pyrido[3,2-d]pyrimidin-6-yl]-N-cyclopropyl-benzamide] | 300 to 1000 | > 20000 | –
9 | CCCCNC(=O)c1ccc(-c2ccc3nc(N)nc(OCC)c3n2)cc1 [Example 57, 4-(2-Amino-4-ethoxy-pyrido[3,2-d]pyrimidin-6-yl)-N-butyl-benzamide] | 300 to 1000 | > 20000 | –
10 | Nc1nc(O[C@@H]2CCOC2)c2nc(-c3ccc(NC(=O)[C@H]4CCNC4)c(F)c3)ccc2n1 [Example 22, Pyrrolidine-3-carboxylic acid {4-[2-amino-4-(tetrahydro-furan-3-yloxy)-pyrido[3,2-d]pyrimidin-6-yl]-2-fluoro-phenyl}-amide] | < 300 | > 20000 | –
11 | CCOc1nc(N)nc2ccc(-c3cccc(NS(=O)(=O)c4ccc(C)cc4)c3)nc12 [Example 40] | 300 to 1000 | > 20000 | –
12 | CCOc1nc(N)nc2ccc(-c3ccc(C(=O)NCCN(C)C)cc3)nc12 [Example 63, 4-(2-Amino-4-ethoxy-pyrido[3,2-d]pyrimidin-6-yl)-N-(2-dimethylamino-ethyl)-benzamide] | < 300 | 10000 to 20000 | –
13 | COc1nc(N)nc2ccc(-c3ccc(C(=O)NC4CC4)cc3)nc12 [Example 74, 4-(2-Amino-4-methoxy-pyrido[3,2-d]pyrimidin-6-yl)-N-cyclopropyl-benzamide] | 300 to 1000 | 10000 to 20000 | –
14 | CCOc1nc(N)nc2ccc(-c3ccc(NC(=O)[C@H](C)N)cc3)nc12 [Example 42, 2-Amino-N-[4-(2-amino-4-ethoxy-pyrido[3,2-d]pyrimidin-6-yl)-phenyl]-propionamide] | < 300 | > 20000 | –
15 | CC(C)C(=O)Nc1ccc(-c2ccc3nc(N)nc(OCCF)c3n2)cc1 [Example 21, N-{4-[2-amino-4-(2-fluoro-ethoxy)-pyrido[3,2-d]pyrimidin-6-yl]-phenyl}-isobutyramide] | 300 to 1000 | > 20000 | –
16 | CC(C)C(=O)Nc1ccc(-c2ccc3nc(N)nc(N4CCS(=O)(=O)CC4)c3n2)cc1 [Example 14, N-{4-[2-Amino-4-(1,1-dioxo-1λ^6-thiomorpholin-4-yl)-pyrido[3,2-d]pyrimidin-6-yl]-phenyl}-isobutyramide] | < 300 | > 20000 | –
17 | COCCNc1nc(N)nc2ccc(-c3ccc(NC(=O)OC)cc3)nc12 [Example 10, {4-[2-Amino-4-(2-methoxy-ethylamino)-pyrido[3,2-d]pyrimidin-6-yl]-phenyl}-carbamic acid methyl ester] | 300 to 1000 | > 20000 | –
18 | CCOc1nc(N)nc2ccc(-c3ccc(NC(=O)C4(N)CC4)c(F)c3)nc12 [Example 30, 1-Amino-cyclopropanecarboxylic acid [4-(2-amino-4-ethoxy-pyrido[3,2-d]pyrimidin-6-yl)-2-fluoro-phenyl]-amide] | < 300 | > 20000 | –
19 | CCOc1nc(N)nc2ccc(-c3ccc(NC(=O)OC)cc3)nc12 [Example 44, [4-(2-Amino-4-ethoxy-pyrido[3,2-d]pyrimidin-6-yl)-phenyl]-carbamic acid methyl ester] | – | > 20000 | 300 to 1000
20 | CCOc1nc(N)nc2ccc(-c3ccc(C(=O)NC4CC4)c(Cl)c3)nc12 [Example 62, 4-(2-Amino-4-ethoxy-pyrido[3,2-d]pyrimidin-6-yl)-2-chloro-N-cyclopropyl-benzamide] | > 1000 | > 20000 | –
21 | CCOc1nc(N)nc2ccc(-c3ccc(Nc4nccs4)cc3)nc12 [Example 31] | 300 to 1000 | 10000 to 20000 | –
22 | CCOc1nc(N)nc2ccc(-c3ccc(C(=O)NC(C)(C)C)cc3)nc12 [Example 58, 4-(2-Amino-4-ethoxy-pyrido[3,2-d]pyrimidin-6-yl)-N-tert-butyl-benzamide] | > 1000 | > 20000 | –
23 | CC(C)Oc1nc(N)nc2ccc(-c3ccc(C(=O)NC4CC4)c(Cl)c3)nc12 [Example 72, 4-(2-Amino-4-isopropoxy-pyrido[3,2-d]pyrimidin-6-yl)-2-chloro-N-cyclopropyl-benzamide] | > 1000 | > 20000 | –
24 | CCOc1nc(N)nc2ccc(-c3ccc(C(=O)NCC(C)C)cc3)nc12 [Example 56, 4-(2-Amino-4-ethoxy-pyrido[3,2-d]pyrimidin-6-yl)-N-isobutyl-benzamide] | 300 to 1000 | > 20000 | –
25 | COC(=O)Nc1ccc(-c2ccc3nc(N)nc(N4CCS(=O)(=O)CC4)c3n2)cc1 [Example 13, {4-[2-Amino-4-(1,1-dioxo-1λ^6-thiomorpholin-4-yl)-pyrido[3,2-d]pyrimidin-6-yl]-phenyl}-carbamic acid methyl ester] | < 300 | > 20000 | –
26 | CCC(=O)Nc1ccc(-c2ccc3nc(N)nc(NCCS(C)(=O)=O)c3n2)cc1 [Example 4, N-{4-[2-Amino-4-(2-methanesulfonyl-ethylamino)-pyrido[3,2-d]pyrimidin-6-yl]-phenyl}-propionamide] | > 1000 | > 20000 | –
27 | CCOc1nc(N)nc2ccc(-c3cccc(NS(=O)(=O)c4c(C)noc4C)c3)nc12 [Example 50, 3,5-Dimethyl-isoxazole-4-sulfonic acid [3-(2-amino-4-ethoxy-pyrido[3,2-d]pyrimidin-6-yl)-phenyl]-amide] | 300 to 1000 | > 20000 | –
28 | Nc1nc(O[C@H]2CCOC2)c2nc(-c3ccc(C(=O)NCCCN4CCCC4)cc3)ccc2n1 [Example 79, 4-[2-Amino-4-(tetrahydro-furan-3-yloxy)-pyrido[3,2-d]pyrimidin-6-yl]-N-(3-pyrrolidin-1-yl-propyl)-benzamide] | 300 to 1000 | > 20000 | –
